Structures are written as SMILES. Several values for one entry are separate records, joined by “and”; a condition that tells them apart may be missing. Equal values may be shown once. Read-outs that look alike come from different tables or passages of the source.

One data set deals with T1, Dyrk1A (Homo sapiens, UniProt Q13627).
T1 construct: encoding the catalytic domain of human Dyrk1A; thrombin cleavage site (N); made in house; host or cells: Escherichia coli BL21(DE3) with pRARE
In words: Dyrk1A kinase assay (32P-ATP, Woodtide). Conditions: for IC50: 100 µM ATP; for inhibition at 5 µM: read-out: percentage of inhibition Dyrk1A. The class given is biochemical.

For another data set, the target named is T2, EGFR (Homo sapiens, UniProt P00533).
T2 construct: purchased Life Technologies (Invitrogen SelectScreen); Dyrk1A, Dyrk2 and CK2α in-house or gifts
The experiment in a line: Selectivity panel EGFR. The following applies: 5 µM inhibitor. It counts as biochemical.

Another data set deals with T3, PKCβ (Homo sapiens, UniProt P05771).
T3 construct: purchased Life Technologies (Invitrogen SelectScreen); Dyrk1A, Dyrk2 and CK2α in-house or gifts
The experiment in a line: Selectivity panel PKCβ. It counts as biochemical. The following applies: 5 µM inhibitor.

A further data set has as its target T4, MST1 (STK4) (Homo sapiens, UniProt Q13043).
T4 construct: purchased Life Technologies (Invitrogen SelectScreen); Dyrk1A, Dyrk2 and CK2α in-house or gifts
T4 sequence (Q13043 1-487): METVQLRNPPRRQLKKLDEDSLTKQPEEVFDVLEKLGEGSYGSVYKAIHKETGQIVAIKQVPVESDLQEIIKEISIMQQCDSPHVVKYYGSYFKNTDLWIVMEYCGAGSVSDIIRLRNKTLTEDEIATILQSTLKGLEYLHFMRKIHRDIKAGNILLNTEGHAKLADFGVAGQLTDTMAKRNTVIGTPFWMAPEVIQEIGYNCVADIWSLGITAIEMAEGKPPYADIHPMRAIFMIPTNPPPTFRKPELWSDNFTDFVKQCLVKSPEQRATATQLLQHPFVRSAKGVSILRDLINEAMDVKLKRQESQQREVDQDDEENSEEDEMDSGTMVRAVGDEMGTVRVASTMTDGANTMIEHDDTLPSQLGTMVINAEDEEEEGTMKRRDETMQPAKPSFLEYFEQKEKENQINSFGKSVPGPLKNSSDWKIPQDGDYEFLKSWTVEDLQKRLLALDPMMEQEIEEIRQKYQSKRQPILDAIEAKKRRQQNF
In words: Selectivity panel MST1. It counts as biochemical. The following applies: 5 µM inhibitor.

For a further data set, the target named is T5, Dyrk2 (Homo sapiens, UniProt Q92630).
T5 construct: made in house; host or cells: Escherichia coli BL21(DE3) with pRARE; plasmid pGEX-2TK-Dyrk2 (gift from W. Becker, Aachen)
T5 sequence (Q92630 1-601): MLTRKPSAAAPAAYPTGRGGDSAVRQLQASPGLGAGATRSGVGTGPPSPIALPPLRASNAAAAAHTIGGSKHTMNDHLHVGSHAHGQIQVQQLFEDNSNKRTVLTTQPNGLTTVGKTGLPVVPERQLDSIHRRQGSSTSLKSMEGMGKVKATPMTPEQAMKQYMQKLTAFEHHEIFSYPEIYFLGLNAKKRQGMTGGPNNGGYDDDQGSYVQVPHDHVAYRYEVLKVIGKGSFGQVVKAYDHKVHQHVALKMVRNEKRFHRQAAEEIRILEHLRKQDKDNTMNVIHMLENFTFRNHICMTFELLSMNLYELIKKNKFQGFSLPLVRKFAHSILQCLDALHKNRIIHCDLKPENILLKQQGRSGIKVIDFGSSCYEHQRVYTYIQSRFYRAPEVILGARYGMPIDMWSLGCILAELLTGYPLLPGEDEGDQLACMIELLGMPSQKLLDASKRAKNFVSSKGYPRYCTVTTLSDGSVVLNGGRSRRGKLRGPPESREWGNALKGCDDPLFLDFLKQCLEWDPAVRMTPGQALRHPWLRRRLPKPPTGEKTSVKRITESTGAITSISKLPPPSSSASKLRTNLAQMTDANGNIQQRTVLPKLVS
In words: Dyrk2 kinase assay (32P-ATP, Woodtide). It counts as biochemical. Conditions: for IC50: 100 µM ATP, read-out: IC50 Dyrk2; for inhibition at 5 µM: read-out: percentage of inhibition Dyrk2.

A further data set deals with T6, MLK1 (Homo sapiens, UniProt P80192).
T6 construct: purchased Life Technologies (Invitrogen SelectScreen); Dyrk1A, Dyrk2 and CK2α in-house or gifts
T6 sequence (P80192 whole entry): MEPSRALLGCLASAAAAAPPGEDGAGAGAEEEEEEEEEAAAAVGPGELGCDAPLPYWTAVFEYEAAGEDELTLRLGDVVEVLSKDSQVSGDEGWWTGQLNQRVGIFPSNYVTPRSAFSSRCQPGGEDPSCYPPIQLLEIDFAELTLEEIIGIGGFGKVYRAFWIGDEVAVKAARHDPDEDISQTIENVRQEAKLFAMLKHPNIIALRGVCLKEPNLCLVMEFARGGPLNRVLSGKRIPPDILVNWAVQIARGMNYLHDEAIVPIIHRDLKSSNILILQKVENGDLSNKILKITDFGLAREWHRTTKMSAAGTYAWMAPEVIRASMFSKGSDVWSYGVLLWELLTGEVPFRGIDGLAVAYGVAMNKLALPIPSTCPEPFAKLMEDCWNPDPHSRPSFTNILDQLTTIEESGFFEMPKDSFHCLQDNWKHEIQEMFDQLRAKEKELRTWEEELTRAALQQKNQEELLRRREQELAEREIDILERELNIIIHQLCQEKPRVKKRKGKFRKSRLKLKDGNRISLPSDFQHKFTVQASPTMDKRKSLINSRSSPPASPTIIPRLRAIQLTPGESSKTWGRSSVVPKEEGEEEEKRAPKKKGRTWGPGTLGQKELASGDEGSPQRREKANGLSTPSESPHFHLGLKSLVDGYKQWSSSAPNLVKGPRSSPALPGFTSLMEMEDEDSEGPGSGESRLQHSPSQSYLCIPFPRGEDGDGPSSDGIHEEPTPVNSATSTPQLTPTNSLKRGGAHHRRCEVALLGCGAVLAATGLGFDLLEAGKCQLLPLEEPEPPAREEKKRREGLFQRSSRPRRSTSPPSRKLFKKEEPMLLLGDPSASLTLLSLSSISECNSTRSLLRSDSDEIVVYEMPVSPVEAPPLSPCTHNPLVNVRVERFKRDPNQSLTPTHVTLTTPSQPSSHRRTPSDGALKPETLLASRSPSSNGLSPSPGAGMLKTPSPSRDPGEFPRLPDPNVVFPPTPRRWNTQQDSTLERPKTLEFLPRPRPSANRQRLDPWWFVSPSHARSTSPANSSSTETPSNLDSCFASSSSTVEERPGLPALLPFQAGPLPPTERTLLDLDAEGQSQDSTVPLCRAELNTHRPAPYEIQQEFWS
The experiment in a line: Selectivity panel MLK1. It counts as biochemical. Conditions: 5 µM inhibitor.

The next data set concerns the target T7, TrkB (Homo sapiens, UniProt Q16620).
T7 construct: purchased Life Technologies (Invitrogen SelectScreen); Dyrk1A, Dyrk2 and CK2α in-house or gifts
The experiment in a line: Selectivity panel TrkB. Conditions: 5 µM inhibitor. It counts as biochemical.

A further data set concerns the target T8, CK2α (Homo sapiens, UniProt P68400).
T8 construct: purchased Life Technologies (Invitrogen SelectScreen); Dyrk1A, Dyrk2 and CK2α in-house or gifts
The experiment in a line: CK2α kinase assay (counter screen). The class given is biochemical. The following applies: for inhibition at 5 µM: read-out: percentage of inhibition CK2α. How it is done:
Dyrk1A, Dyrk1B, Dyrk2, CK2α and Clk1 kinase reactions were performed in a reaction buffer containing 50 mM Tris/HCl, pH 7.4, 0.1 mM EGTA, 0.5 mM DTT, 10 mM MgCl2, 100 µM ATP and 0.33 µM [γ-^32ATP] as well as the appropriate substrate peptides, which were 100 µM Woodtide for the Dyrk isoforms ([…]-NH2), 60 µM CK2 substrate peptide ([…]-NH2, from Millipore) for CK2α or RS repeat peptide ([…]) for Clk1. The CK2α protein was a kind gift of M. Montenarh (Homburg). The kinase reactions were performed at 30°C for 15 min and terminated by spotting 5 µL of the reaction mixture onto a P81 phosphocellulose membrane (Whatman). The membrane was washed four times with 0.3% phosphoric acid and one time with acetone and dried. The dry membrane was exposed in a cassette to a Phosphor Screen Imaging Plate (FujiFilm) and the signals detected by scanning of the imaging plate in a Fuji FLA-3000 PhosphoImager. The spots were quantified using AIDA software (Raytest, Version 3.52) to determine the activities of the kinases in the assay reactions. […] IC50 values were calculated by fitting the data with Origin Pro 8.6 (OriginLabs). The calculated IC50 values are representative of at least two independent determinations.

For another data set, the target named is Clk1 (Homo sapiens, UniProt P49759). In words: Clk1 kinase assay (RS repeat peptide). It counts as biochemical. The following applies: for IC50: 100 µM ATP; for inhibition at 5 µM: read-out: % inhibition Clk1.
Chain of Clk1 (P49759 whole entry): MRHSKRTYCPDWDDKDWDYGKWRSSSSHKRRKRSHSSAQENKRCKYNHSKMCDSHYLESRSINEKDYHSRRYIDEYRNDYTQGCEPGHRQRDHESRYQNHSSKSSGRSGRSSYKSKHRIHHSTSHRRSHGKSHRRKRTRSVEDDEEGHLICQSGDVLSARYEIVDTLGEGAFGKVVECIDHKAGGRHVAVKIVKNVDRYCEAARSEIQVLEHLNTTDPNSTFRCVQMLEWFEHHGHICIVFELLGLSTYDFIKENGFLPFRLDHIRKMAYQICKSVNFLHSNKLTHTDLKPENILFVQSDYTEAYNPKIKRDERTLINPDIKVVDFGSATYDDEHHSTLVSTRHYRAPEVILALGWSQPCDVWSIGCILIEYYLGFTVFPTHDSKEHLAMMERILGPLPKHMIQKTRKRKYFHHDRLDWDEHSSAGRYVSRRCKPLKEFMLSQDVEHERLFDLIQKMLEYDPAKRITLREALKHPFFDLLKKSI
The target of a further data set is T9, Ck1δ (Homo sapiens, UniProt P48730).
T9 construct: purchased Life Technologies (Invitrogen SelectScreen); Dyrk1A, Dyrk2 and CK2α in-house or gifts
In words: Selectivity panel Ck1δ. It counts as biochemical. Conditions: 5 µM inhibitor.

Another data set concerns the target T10, ROS (Homo sapiens, UniProt P08922).
T10 construct: purchased Life Technologies (Invitrogen SelectScreen); Dyrk1A, Dyrk2 and CK2α in-house or gifts
In words: Selectivity panel ROS. The following applies: 5 µM inhibitor. The class given is biochemical.

In the next data set the target is T11, GSK3β (Homo sapiens, UniProt P49841).
T11 construct: purchased Life Technologies (Invitrogen SelectScreen); Dyrk1A, Dyrk2 and CK2α in-house or gifts
The experiment in a line: Selectivity panel GSK3β. The class given is biochemical. The following applies: 5 µM inhibitor.

The next data set has as its target T12, CDK5 (Homo sapiens, UniProt Q00535).
T12 construct: purchased Life Technologies (Invitrogen SelectScreen); Dyrk1A, Dyrk2 and CK2α in-house or gifts
The experiment in a line: Selectivity panel CDK5. Conditions: 5 µM inhibitor. It counts as biochemical.

T10 sequence (P08922 28-2347): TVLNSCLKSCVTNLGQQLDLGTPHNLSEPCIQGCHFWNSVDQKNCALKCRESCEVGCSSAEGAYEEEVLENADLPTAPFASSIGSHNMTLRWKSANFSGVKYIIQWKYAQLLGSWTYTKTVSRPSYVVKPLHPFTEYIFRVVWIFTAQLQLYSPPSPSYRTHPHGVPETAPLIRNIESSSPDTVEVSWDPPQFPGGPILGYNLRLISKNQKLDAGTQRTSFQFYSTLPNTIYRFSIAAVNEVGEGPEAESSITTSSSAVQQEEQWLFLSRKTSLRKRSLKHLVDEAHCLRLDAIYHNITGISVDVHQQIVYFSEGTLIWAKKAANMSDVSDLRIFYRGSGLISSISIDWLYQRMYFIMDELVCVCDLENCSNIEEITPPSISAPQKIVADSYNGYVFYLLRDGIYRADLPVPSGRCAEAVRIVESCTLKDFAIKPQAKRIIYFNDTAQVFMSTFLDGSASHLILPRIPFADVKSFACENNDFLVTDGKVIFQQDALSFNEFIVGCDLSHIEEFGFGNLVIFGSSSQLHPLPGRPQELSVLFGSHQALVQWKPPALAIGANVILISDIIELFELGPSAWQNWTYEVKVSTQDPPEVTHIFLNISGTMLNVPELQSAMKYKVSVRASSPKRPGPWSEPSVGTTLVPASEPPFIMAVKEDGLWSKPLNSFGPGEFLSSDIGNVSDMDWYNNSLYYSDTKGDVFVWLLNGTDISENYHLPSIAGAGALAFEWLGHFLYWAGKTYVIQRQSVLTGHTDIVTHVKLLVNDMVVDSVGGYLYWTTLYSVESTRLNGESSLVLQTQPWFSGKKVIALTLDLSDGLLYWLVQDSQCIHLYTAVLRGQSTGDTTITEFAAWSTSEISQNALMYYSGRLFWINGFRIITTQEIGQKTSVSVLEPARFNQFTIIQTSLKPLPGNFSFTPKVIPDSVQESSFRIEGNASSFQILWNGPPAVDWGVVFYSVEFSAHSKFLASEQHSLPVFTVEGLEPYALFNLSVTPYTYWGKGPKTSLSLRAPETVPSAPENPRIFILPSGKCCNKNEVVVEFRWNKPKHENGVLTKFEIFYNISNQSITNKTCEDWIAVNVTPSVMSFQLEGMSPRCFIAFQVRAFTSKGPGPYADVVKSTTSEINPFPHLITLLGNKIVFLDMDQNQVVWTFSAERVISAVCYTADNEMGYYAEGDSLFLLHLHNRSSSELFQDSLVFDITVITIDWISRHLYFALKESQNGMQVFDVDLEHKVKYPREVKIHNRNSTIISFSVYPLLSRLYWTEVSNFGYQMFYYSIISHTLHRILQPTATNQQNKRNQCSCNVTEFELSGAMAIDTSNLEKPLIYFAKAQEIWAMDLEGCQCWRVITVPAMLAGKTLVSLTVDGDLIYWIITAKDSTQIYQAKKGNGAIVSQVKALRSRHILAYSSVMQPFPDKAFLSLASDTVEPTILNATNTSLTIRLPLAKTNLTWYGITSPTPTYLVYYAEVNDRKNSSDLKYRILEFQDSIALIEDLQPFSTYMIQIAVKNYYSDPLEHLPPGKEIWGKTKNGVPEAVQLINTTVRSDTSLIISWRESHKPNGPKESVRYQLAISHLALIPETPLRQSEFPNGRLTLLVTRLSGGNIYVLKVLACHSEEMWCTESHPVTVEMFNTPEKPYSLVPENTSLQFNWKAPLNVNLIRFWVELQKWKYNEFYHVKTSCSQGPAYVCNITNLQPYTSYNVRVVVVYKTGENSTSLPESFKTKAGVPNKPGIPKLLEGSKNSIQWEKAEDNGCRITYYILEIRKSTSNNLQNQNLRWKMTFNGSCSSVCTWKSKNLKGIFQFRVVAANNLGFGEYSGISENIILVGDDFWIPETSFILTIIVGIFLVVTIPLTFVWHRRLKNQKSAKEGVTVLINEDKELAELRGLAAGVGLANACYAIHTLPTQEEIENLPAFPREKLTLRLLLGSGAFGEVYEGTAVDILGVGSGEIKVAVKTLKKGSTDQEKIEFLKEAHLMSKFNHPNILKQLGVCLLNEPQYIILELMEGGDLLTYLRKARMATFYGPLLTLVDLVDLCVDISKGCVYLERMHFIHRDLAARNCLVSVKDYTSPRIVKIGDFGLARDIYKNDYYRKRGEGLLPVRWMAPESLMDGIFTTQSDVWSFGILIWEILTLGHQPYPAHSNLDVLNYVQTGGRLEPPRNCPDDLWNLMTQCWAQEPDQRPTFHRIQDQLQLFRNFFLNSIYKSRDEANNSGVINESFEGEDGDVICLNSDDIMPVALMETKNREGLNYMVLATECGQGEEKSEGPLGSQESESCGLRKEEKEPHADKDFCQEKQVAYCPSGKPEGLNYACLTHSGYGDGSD
T12 sequence (Q00535 whole entry): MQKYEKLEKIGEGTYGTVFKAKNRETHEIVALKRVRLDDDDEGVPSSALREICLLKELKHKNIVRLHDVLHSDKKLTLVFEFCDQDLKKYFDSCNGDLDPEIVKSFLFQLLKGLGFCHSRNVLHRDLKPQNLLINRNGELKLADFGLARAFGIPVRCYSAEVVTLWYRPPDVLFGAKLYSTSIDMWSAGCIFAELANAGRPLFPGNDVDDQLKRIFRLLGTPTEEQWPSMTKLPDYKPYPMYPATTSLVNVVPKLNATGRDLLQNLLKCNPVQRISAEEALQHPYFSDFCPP
T12 sequence (Q15078 whole entry partner): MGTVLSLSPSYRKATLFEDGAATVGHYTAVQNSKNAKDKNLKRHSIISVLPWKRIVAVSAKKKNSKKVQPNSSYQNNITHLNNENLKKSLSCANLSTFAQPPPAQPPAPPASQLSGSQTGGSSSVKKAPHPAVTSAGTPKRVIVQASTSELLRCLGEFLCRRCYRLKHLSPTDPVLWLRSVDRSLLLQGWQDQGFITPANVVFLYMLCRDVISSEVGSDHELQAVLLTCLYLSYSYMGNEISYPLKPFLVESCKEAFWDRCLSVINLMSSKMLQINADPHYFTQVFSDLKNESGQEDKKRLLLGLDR
T8 sequence (P68400 whole entry): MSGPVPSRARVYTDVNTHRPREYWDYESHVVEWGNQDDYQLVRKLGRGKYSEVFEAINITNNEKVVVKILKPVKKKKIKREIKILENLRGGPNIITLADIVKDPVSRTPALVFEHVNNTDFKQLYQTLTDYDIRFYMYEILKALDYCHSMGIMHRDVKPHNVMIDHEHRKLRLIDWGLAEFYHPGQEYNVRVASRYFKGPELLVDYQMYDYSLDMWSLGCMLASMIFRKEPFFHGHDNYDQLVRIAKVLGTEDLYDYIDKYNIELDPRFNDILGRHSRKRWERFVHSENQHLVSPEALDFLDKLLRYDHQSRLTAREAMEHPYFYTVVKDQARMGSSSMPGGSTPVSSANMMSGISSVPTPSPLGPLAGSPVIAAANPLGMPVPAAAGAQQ

Regarding `c1cncc(-c2csc(-c3cncs3)c2)c1` [Compound 48, 3-[5-(1,3-thiazol-5-yl)thiophen-3-yl]pyridine], the melting point lay in the range of 69 to 70 °C. On Dyrk1A, it took 0.1 µM to reach half-maximal inhibition (IC50) and the inhibition at 5 µM was 97%. At Dyrk1A (calculated with Cheng-Prussoff equation, KM ATP 64 µM), the Kd is 0.039 µM. For the same compound, on EGFR, the inhibition at 5 µM amounted to 15%. At PKCβ, the inhibition at 5 µM was found to be 1%. Besides, at MST1 (STK4), the inhibition at 5 µM was 9%. Moreover, on Dyrk2, the IC50 came to 0.04 µM and the inhibition at 5 µM turned out to be 100%. Moreover, the inhibition at 5 µM against MLK1 is 17%. The inhibition at 5 µM on TrkB turned out to be 0%. The inhibition at 5 µM on CK2α stood at 0%. The compound further yielded a half-inhibitory concentration (IC50) against Clk1 of 0.11 µM. Moreover, at Clk1 (at 5 µM), the inhibition at 5 µM turned out to be 94%. Besides, at Ck1δ, the inhibition at 5 µM was 1%. The inhibition at 5 µM against ROS is 0%. The inhibition at 5 µM on GSK3β stood at 25%. The inhibition at 5 µM on CDK5 is 44%.
Compound `c1cncc(-c2csc(-c3cnco3)c2)c1` [Compound 33, 3-[5-(1,3-oxazol-5-yl)thiophen-3-yl]pyridine] had a melting point of 86 to 87 °C. Also, at Dyrk1A, the IC50 was 0.8 µM and 0.81 µM; the inhibition at 5 µM was 84%. Moreover, the inhibition at 5 µM against EGFR amounted to 0%. Besides, on PKCβ, the inhibition at 5 µM was -18%. The inhibition at 5 µM at MST1 (STK4) stood at 0%. On Dyrk2, the IC50 was 1.34 µM and 1.3 µM; the inhibition at 5 µM amounted to 77%. Besides, the inhibition at 5 µM against MLK1 turned out to be 0%. For the same compound, the inhibition at 5 µM at TrkB came to 23%. Further, the inhibition at 5 µM at CK2α was 0%. Also, the IC50 on Clk1 was determined as 0.42 µM. For the same compound, the inhibition at 5 µM at Clk1 (at 5 µM) was determined as 88%. The inhibition at 5 µM against Ck1δ is 0%. Also, the inhibition at 5 µM against ROS stood at 2%. The inhibition at 5 µM against GSK3β came out at 10%. In addition, at CDK5, the inhibition at 5 µM stood at 23%.
For the compound `c1cncc(-c2cc(-c3cncs3)cs2)c1` [Compound 29, 3-[4-(1,3-thiazol-5-yl)thiophen-2-yl]pyridine], the melting point lay within 114 to 115 °C. For the same compound, the inhibition at 5 µM against EGFR was found to be 0%. The inhibition at 5 µM against PKCβ is -7%. Besides, the inhibition at 5 µM against MST1 (STK4) was 0%. Also, at Dyrk2, the IC50 was 0.4 µM and 0.43 µM; the inhibition at 5 µM is 93%. On MLK1, the inhibition at 5 µM turned out to be 15%. Besides, the inhibition at 5 µM at TrkB is 24%. The inhibition at 5 µM on CK2α turned out to be 0%. Further, on Clk1, the inhibition at 5 µM was found to be 96%. Also, the inhibition at 5 µM on Ck1δ is 0%. Besides, the inhibition at 5 µM at ROS stood at 0%. On GSK3β, the inhibition at 5 µM was found to be 0%. Moreover, on CDK5, the inhibition at 5 µM worked out at 39%.
`Cn1cc(-c2csc(-c3cccnc3)c2)cn1` [Compound 30, 3-[4-(1-methyl-1H-pyrazol-4-yl)thiophen-2-yl]pyridine]: the melting point lay in the range of 119 to 120 °C. On EGFR, the inhibition at 5 µM was determined as 5%. The inhibition at 5 µM against PKCβ was -8%. For the same compound, the inhibition at 5 µM against MST1 (STK4) is -10%. Further, on Dyrk2, the half-inhibitory concentration (IC50) was 0.2 µM and 0.19 µM; the inhibition at 5 µM is 100%. Moreover, the inhibition at 5 µM on MLK1 was determined as 16%. On TrkB, the inhibition at 5 µM was -5%. Moreover, on CK2α (at 5 µM), the “percentage of inhibition CK2α” value was 10%. The inhibition at 5 µM at CK2α amounted to 9.5%. It took 0.16 µM to reach half-maximal inhibition at Clk1 (IC50). For the same compound, the inhibition at 5 µM on Clk1 (at 5 µM) was determined as 92%. Further, the inhibition at 5 µM against Ck1δ was -1%. Also, the inhibition at 5 µM against ROS was 4%. The inhibition at 5 µM against GSK3β turned out to be 17%. The inhibition at 5 µM at CDK5 was 33%.
Take `c1cncc(-c2csc(-c3cncnc3)c2)c1` [Compound 41, 5-[4-(pyridin-3-yl)thiophen-2-yl]pyrimidine]: the melting point lay in the range of 173 to 174 °C. At Dyrk1A, the IC50 was 0.9 µM and 0.88 µM; the inhibition at 5 µM came out at 85%. For the same compound, the inhibition at 5 µM against EGFR was 4%. Further, the inhibition at 5 µM against PKCβ was -7%. Besides, the inhibition at 5 µM against MST1 (STK4) is 2%. Further, at Dyrk2, the IC50 is 3.5 µM and 3.4 µM; the inhibition at 5 µM was 57%. The inhibition at 5 µM against MLK1 was found to be 3%. In addition, the inhibition at 5 µM on TrkB was determined as 22%. The inhibition at 5 µM on CK2α came to 0%. The same compound displayed an IC50 against Clk1 of 0.61 µM. Moreover, the inhibition at 5 µM on Clk1 (at 5 µM) turned out to be 86%. Further, the inhibition at 5 µM against Ck1δ came out at 0%. For the same compound, on ROS, the inhibition at 5 µM was determined as 0%. On GSK3β, the inhibition at 5 µM was 14%. In addition, the inhibition at 5 µM against CDK5 came out at 14%.

These data come from PMC3968014, “Design and Synthesis of a Library of Lead-Like 2,4-Bisheterocyclic Substituted Thiophenes as Selective Dyrk/Clk Inhibitors” (PLoS ONE, 2014).
